The source of these data is ChEMBL document CHEMBL1145757, “QSAR study on solubility of alkanes in water and their partition coefficients in different solvent systems using PI index” (Bioorg Med Chem Lett, 2003).

Data set [1] in a line: physchem. Particulars: octanol/water.
Description: Partition coefficient (logP)
A short description of data set [2]: physchem.
Description: Solubility in water was determined; values expressed as -log
For data set [3] the following is noted: octanol/water.
Description: Partition coefficient (logP)
Data set [4] in a line: Partition coefficient in water-cyclohexane was determined. The format is ADME.
The conditions of data set [5]: water/hexadecane.
Description: Partition coefficient in water-hexadecane (P16) was determined
The conditions of data set [6]: water/alkane.
Description: Partition coefficient in alkanes was determined

In brackets after ≈: the same amount, converted by molar mass.

One may read the logP as a log measure of how a compound divides between an organic and an aqueous phase. Low readings indicate a more hydrophilic compound, high ones a more lipophilic compound. Broadly, the solubility is the dissolved amount per volume that the medium holds. Lower therefore signals little dissolved substance. In the data set “physchem [1]”, `CCCCCCCCCCCCCC` showed a logP of 8. The same compound showed a solubility in the data set “physchem [2]” (water) of 0.011 µM (≈ 0.00218 µg/mL).

Regarding `CCCC` [BUTANE], in the data set “physchem [2]” (buffer), the solubility is 2690 µM (≈ 156 µg/mL). Besides, in data set [3], the logP is given as 2.89. Further, the “Log Pcyc” value in data set [4] was found to be 3.62.

Turning to `CCCCCCCCCC` [DECANE], in data set [5], the “Log P16” value came out at 7.01. In “physchem [1]”, the lipophilicity (logP) was 6.34. For the same compound, in the data set “physchem [2]” (water), the solubility was 0.105 µM (≈ 0.0149 µg/mL).

`CCCCCCCCCCCC` [DODECANE] showed a solubility in “physchem [2]” (buffer) of 0.0214 µM (≈ 0.00364 µg/mL).

As for `CCCCCCC` [HEPTANE], the “Log P16” value in data set [5] worked out at 5.14. The logP in “physchem [1]” amounted to 4.5. Moreover, in “physchem [2]” (water), the concentration in solution (solubility) came to 29.5 µM (≈ 2.96 µg/mL).

In the data set “physchem [2]” (water), `CCCCCCCCCCCCCCCC` [HEXADECANE] had a solubility of 0.00398 µM (≈ 0.000902 µg/mL). In addition, the log partition coefficient (logP) in data set [3] came to 9.57.

`CCCCCC` [HEXANE] showed a solubility in “physchem [2]” (buffer) of 145 µM (≈ 12.5 µg/mL). The same compound yielded a logP in data set [3] of 3.9.

With `C` [METHANE], the “Log Palk” value in data set [6] is given as 1.37. The “Log P16” value in data set [5] worked out at 1.14. The “Log Pcyc” value in data set [4] came to 1.33.

For `CCCCCCCCC` [NONANE], the “Log P16” value in data set [5] was 6.49. This compound also came in with a logP in “physchem [1]” of 5.65. The compound further gave a solubility in the data set “physchem [2]” (buffer) of 1.32 µM (≈ 0.169 µg/mL).

In the case of `CCCCCCCC` [OCTANE], the “Log P16” value in data set [5] is given as 5.79. In addition, the logP in “physchem [1]” turned out to be 5.15. The solubility in the data set “physchem [2]” (water) is 5.75 µM (≈ 0.657 µg/mL).

In the case of `CCCCC` [PENTANE], the “Log Palk” value in data set [6] stood at 4.06. Further, the “Log P16” value in data set [5] worked out at 3.87. This compound showed a solubility in “physchem [2]” (water) of 661 µM (≈ 47.7 µg/mL). Besides, the “Log Pcyc” value in data set [4] stood at 4.27.
